According to patent US12049450B2, “Pyridyloxy-carboxylate derivative and preparation method therefor, herbicidal composition, and use” (Qingdao Kingagroot Chemical Compound Co., Ltd., priority 2018, dated 2024):

Columns and labels:
Experiment in all cases: Post-emergence test experiment (greenhouse pot, spray at 2-3 leaf stage)
Type in all cases: in vivo
Details in all cases: 1000 g/ha; post-emergence spray at 2-3 leaf stage; assessed after 3 weeks; fresh weight inhibition rate
[1] = tested on: Abutilon theophrasti
Method in brief: (§1)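 Weed seeds sown in soil-filled pots in greenhouse, sprayed at 2-3 leaf stage (2 weeks after sowing) with compound in acetone/tween-80 plus methyl oleate emulsible concentrate (1.5 L/ha) diluted in water. Fresh-weight growth inhibition scored after 3 weeks on 0-5 scale (5: >85%, 0: <5%).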

[2] = tested on: Digitaria sanguinalis
Method in brief: as §1

[3] = tested on: Echinochloa crusgalli
Method in brief: as §1

[4] = tested on: Galium spurium
Method in brief: as §1

[5] = tested on: Monochoria vaginalis
Method in brief: as §1

| SMILES | Activity level (growth inhibition rate) Abutilon theophrasti [1] | Activity level (growth inhibition rate) Digitaria sanguinalis [2] | Activity level (growth inhibition rate) Echinochloa crusgalli [3] | Activity level (growth inhibition rate) Galium spurium [4] | Activity level (growth inhibition rate) Monochoria Vaginalis [5] |
| --- | --- | --- | --- | --- | --- |
| CC(Oc1nc(F)c(Cl)c(N)c1Cl)C(=O)SCc1cccc(F)c1 (stereo not shown) [Compound 222] | 5 (Level 5: the growth inhibition rate is greater than 85%) | 5 (Level 5: the growth inhibition rate is greater than 85%) | 5 (Level 5: the growth inhibition rate is greater than 85%) | 5 (Level 5: the growth inhibition rate is greater than 85%) | 5 (Level 5: the growth inhibition rate is greater than 85%) |
| CC(Oc1nc(F)c(Cl)c(N)c1Cl)C(=O)OCc1nnnn1C (stereo not shown) [Compound 138] | 5 (Level 5: the growth inhibition rate is greater than 85%) | 5 (Level 5: the growth inhibition rate is greater than 85%) | 5 (Level 5: the growth inhibition rate is greater than 85%) | 5 (Level 5: the growth inhibition rate is greater than 85%) | 5 (Level 5: the growth inhibition rate is greater than 85%) |
| CC(Oc1nc(F)c(Cl)c(N)c1Cl)C(=O)SCCc1ccncn1 (stereo not shown) [Compound 125] | 5 (Level 5: the growth inhibition rate is greater than 85%) | 5 (Level 5: the growth inhibition rate is greater than 85%) | 5 (Level 5: the growth inhibition rate is greater than 85%) | 5 (Level 5: the growth inhibition rate is greater than 85%) | 5 (Level 5: the growth inhibition rate is greater than 85%) |
| CCOC(=O)Nc1cccc(CSC(=O)C(C)Oc2nc(F)c(Cl)c(N)c2Cl)c1 (racemic) [Compound 109] | 5 (Level 5: the growth inhibition rate is greater than 85%) | 5 (Level 5: the growth inhibition rate is greater than 85%) | 5 (Level 5: the growth inhibition rate is greater than 85%) | 5 (Level 5: the growth inhibition rate is greater than 85%) | 5 (Level 5: the growth inhibition rate is greater than 85%) |
| CC(Oc1nc(F)c(Cl)c(N)c1Cl)C(=O)SCc1cccnc1 (stereo not shown) [Compound 237] | 5 (Level 5: the growth inhibition rate is greater than 85%) | 5 (Level 5: the growth inhibition rate is greater than 85%) | 5 (Level 5: the growth inhibition rate is greater than 85%) | 5 (Level 5: the growth inhibition rate is greater than 85%) | 5 (Level 5: the growth inhibition rate is greater than 85%) |
| COc1ccc2ccc(COC(=O)C(C)Oc3nc(F)c(Cl)c(N)c3Cl)cc2c1 (stereo not shown) [Compound 183] | 5 (Level 5: the growth inhibition rate is greater than 85%) | 5 (Level 5: the growth inhibition rate is greater than 85%) | 5 (Level 5: the growth inhibition rate is greater than 85%) | 5 (Level 5: the growth inhibition rate is greater than 85%) | 5 (Level 5: the growth inhibition rate is greater than 85%) |
| COc1cccc(F)c1CSC(=O)C(C)Oc1nc(F)c(Cl)c(N)c1Cl (stereo not shown) [Compound 84] | 5 (Level 5: the growth inhibition rate is greater than 85%) | 5 (Level 5: the growth inhibition rate is greater than 85%) | 5 (Level 5: the growth inhibition rate is greater than 85%) | 5 (Level 5: the growth inhibition rate is greater than 85%) | 5 (Level 5: the growth inhibition rate is greater than 85%) |
| CC(Oc1nc(F)c(Cl)c(N)c1Cl)C(=O)SCc1ccnn1C (stereo not shown) [Compound 132] | 5 (Level 5: the growth inhibition rate is greater than 85%) | 5 (Level 5: the growth inhibition rate is greater than 85%) | 5 (Level 5: the growth inhibition rate is greater than 85%) | 5 (Level 5: the growth inhibition rate is greater than 85%) | 5 (Level 5: the growth inhibition rate is greater than 85%) |
| COC(=O)Nc1cccc(CCOC(=O)C(C)Oc2nc(F)c(Cl)c(N)c2Cl)c1 (stereo not shown) [Compound 107] | 5 (Level 5: the growth inhibition rate is greater than 85%) | 5 (Level 5: the growth inhibition rate is greater than 85%) | 5 (Level 5: the growth inhibition rate is greater than 85%) | 5 (Level 5: the growth inhibition rate is greater than 85%) | 5 (Level 5: the growth inhibition rate is greater than 85%) |
| CC(Oc1nc(F)c(Cl)c(N)c1Cl)C(=O)SCc1ccccc1C(F)(F)F (stereo not shown) [Compound 232] | 5 (Level 5: the growth inhibition rate is greater than 85%) | 5 (Level 5: the growth inhibition rate is greater than 85%) | 5 (Level 5: the growth inhibition rate is greater than 85%) | 5 (Level 5: the growth inhibition rate is greater than 85%) | 5 (Level 5: the growth inhibition rate is greater than 85%) |
| CC(Oc1nc(F)c(Cl)c(N)c1Cl)C(=O)SCc1cccc(Br)c1 (stereo not shown) [Compound 230] | 5 (Level 5: the growth inhibition rate is greater than 85%) | 5 (Level 5: the growth inhibition rate is greater than 85%) | 5 (Level 5: the growth inhibition rate is greater than 85%) | 5 (Level 5: the growth inhibition rate is greater than 85%) | 5 (Level 5: the growth inhibition rate is greater than 85%) |
| CC(Oc1nc(F)c(Cl)c(N)c1Cl)C(=O)OCc1cccc(O)c1 (stereo not shown) [Compound 89] | 5 (Level 5: the growth inhibition rate is greater than 85%) | 5 (Level 5: the growth inhibition rate is greater than 85%) | 5 (Level 5: the growth inhibition rate is greater than 85%) | 5 (Level 5: the growth inhibition rate is greater than 85%) | 5 (Level 5: the growth inhibition rate is greater than 85%) |
| CC(Oc1nc(F)c(Cl)c(N)c1Cl)C(=O)SCc1ccc2ncoc2c1 (stereo not shown) [Compound 174] | 5 (Level 5: the growth inhibition rate is greater than 85%) | 5 (Level 5: the growth inhibition rate is greater than 85%) | 5 (Level 5: the growth inhibition rate is greater than 85%) | 5 (Level 5: the growth inhibition rate is greater than 85%) | 5 (Level 5: the growth inhibition rate is greater than 85%) |
| CC(Oc1nc(F)c(Cl)c(N)c1Cl)C(=O)OCc1cc2ccccc2s1 (stereo not shown) [Compound 177] | 5 (Level 5: the growth inhibition rate is greater than 85%) | 5 (Level 5: the growth inhibition rate is greater than 85%) | 5 (Level 5: the growth inhibition rate is greater than 85%) | 5 (Level 5: the growth inhibition rate is greater than 85%) | 5 (Level 5: the growth inhibition rate is greater than 85%) |
| CC(Oc1nc(F)c(Cl)c(N)c1Cl)C(=O)OCc1ccns1 (stereo not shown) [Compound 160] | 5 (Level 5: the growth inhibition rate is greater than 85%) | 5 (Level 5: the growth inhibition rate is greater than 85%) | 5 (Level 5: the growth inhibition rate is greater than 85%) | 5 (Level 5: the growth inhibition rate is greater than 85%) | 5 (Level 5: the growth inhibition rate is greater than 85%) |
| CC(Oc1nc(F)c(Cl)c(N)c1Cl)C(=O)SCc1nnco1 (stereo not shown) [Compound 149] | 5 (Level 5: the growth inhibition rate is greater than 85%) | 5 (Level 5: the growth inhibition rate is greater than 85%) | 5 (Level 5: the growth inhibition rate is greater than 85%) | 5 (Level 5: the growth inhibition rate is greater than 85%) | 5 (Level 5: the growth inhibition rate is greater than 85%) |
| CC(Oc1nc(F)c(Cl)c(N)c1Cl)C(=O)OCC1CCCO1 (stereo not shown) [Compound 68] | 5 (Level 5: the growth inhibition rate is greater than 85%) | 5 (Level 5: the growth inhibition rate is greater than 85%) | 5 (Level 5: the growth inhibition rate is greater than 85%) | 5 (Level 5: the growth inhibition rate is greater than 85%) | 5 (Level 5: the growth inhibition rate is greater than 85%) |
